“And” between values parts separate entries of the source, which are not always exact repeats. Equal entries are not always repeated. Where two headings read alike, the source gives them in different places.
Key:
Ba/F3^myr-Akt2 cells = assay: CellTiter-Glo cell viability assay; details: for cell viability: CTG
Akt3 = Akt3 (Homo sapiens, UniProt Q9Y243); assay: STK HTRF KinEASE activity-based assay (IC50)
Protocol: The biochemical half maximal inhibitory concentrations (IC50) were determined with the STK HTRF KinEASE assay (Cisbio) according to the manufactor’s instructions. Briefly: 5 µL Kinase solution and 2.5 µL inhibitor solution (8% DMSO in HTRF buffer) were incubated for 1 h before the reaction was started by addition of 2.5 µL starting solution containing ATP and substrate peptide. […] After reaction completion (Akt1: 60 min, Akt2: 20 min, Akt3: 15 min), 10 µL of stop solution were added. […] The quotient of both intensities were recorded at eight different inhibitor concentrations and data fit to a Hill 4-parameter equation with Quattro software suite (Quattro Research GmbH, Martinsried, Germany). Each reaction was performed in duplicates and at least three independent determinations of each IC50 were made.

Ba/F3^myr-Akt1 cells = assay: CellTiter-Glo cell viability assay; details: for cell viability: CTG
Akt2 [1] = biological target: T1, Akt2 (Homo sapiens, UniProt P31751); assay: STK HTRF KinEASE activity-based assay (IC50)
T1 sequence (P31751 whole entry): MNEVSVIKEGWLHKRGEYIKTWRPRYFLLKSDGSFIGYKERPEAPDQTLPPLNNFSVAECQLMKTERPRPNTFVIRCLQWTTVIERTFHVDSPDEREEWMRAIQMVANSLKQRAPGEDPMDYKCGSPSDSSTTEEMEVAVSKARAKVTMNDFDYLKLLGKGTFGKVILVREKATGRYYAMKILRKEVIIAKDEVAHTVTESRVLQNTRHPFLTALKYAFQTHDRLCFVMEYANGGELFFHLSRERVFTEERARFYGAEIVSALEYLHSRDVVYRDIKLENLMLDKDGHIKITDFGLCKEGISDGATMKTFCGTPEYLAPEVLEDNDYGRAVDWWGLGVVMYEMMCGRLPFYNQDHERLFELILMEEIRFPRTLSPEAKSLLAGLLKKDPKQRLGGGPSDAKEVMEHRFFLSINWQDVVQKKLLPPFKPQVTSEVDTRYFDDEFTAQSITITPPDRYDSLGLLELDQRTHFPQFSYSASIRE

[2] = CellTiter-Glo cell viability assay; assay type: cell-based, murine; details: mouse, parental Ba/F3 cells, CTG, parental, single replicates
parental Ba/F3 cells = assay: CellTiter-Glo cell viability assay; assay type: cell-based, murine; details: for cell viability: CTG, parental
pAkt2 = assay: Western blot analysis, PANC1 cells; assay type: cell-based, human; details: PANC1, 24-h treatment
Protocol: Cells were seeded into six-well tissue culture plates (Sarstedt) (BaF3 myr-Akt1/2/3: 10^6 cells/well, PANC1: 250.000 cells/well). […] Cell lysis was initiated by addition of 100 μL RIPA buffer (Cell Signaling Technology) per well supplemented with phosphatase and protease inhibitor cocktails (Sigma) followed by incubation on ice for 20 min. Cells were then harvested by scraping (PANC1) or centrifugation (BaF3). Whole cell lysates were cleared by centrifugation at 14,000×g/4 °C for 10 min and transferred into fresh, pre-cooled microcentrifuge tubes. Protein concentrations were determined using the Pierce BCA protein assay (Thermo) as per manufacturer’s instructions. Equal amounts of protein were separated by SDS-PAGE and transferred to Immobilon-FL PVDF membranes (Merck Millipore) using Pierce™ 1-step transfer buffer (Thermo) and the Pierce™ Power Blotter (Thermo). Membranes were washed for 5 min with ddH2O, blocked with Intercept®Blocking Buffer TBS (Li-Cor) for 1 h at room temperature, and then incubated with primary antibodies diluted in Intercept®Blocking Buffer TBS overnight at 4 °C with gentle agitation. On the next day, the membranes were washed three times with TBS-T (50 mM Tris, 150 mM NaCl, 0.05 % Tween 20, pH 7.4) for 5 min before being incubated with secondary antibodies diluted in Intercept®Blocking Buffer TBS for 1 h at room temperature with gentle agitation. Finally, the membranes were washed three times for 5 min with TBS-T and then scanned using an Odyssey®CLx imaging system (Li-Cor).

Akt2 [3] = biological target: T1, Akt2; assay: Cellular thermal shift assay (CETSA) in PANC1 cells; assay type: cell-based; parameters: purchased Thermo Fisher Scientific #PV3184
Akt1 = Akt1 (Homo sapiens, UniProt P31749); assay: as above; assay type: cell-based; parameters: purchased ProQinase #1379-0000-2; details: CETSA PANC1, 1 µM, temperature 39.9
Chain of Akt1 (P31749 whole entry): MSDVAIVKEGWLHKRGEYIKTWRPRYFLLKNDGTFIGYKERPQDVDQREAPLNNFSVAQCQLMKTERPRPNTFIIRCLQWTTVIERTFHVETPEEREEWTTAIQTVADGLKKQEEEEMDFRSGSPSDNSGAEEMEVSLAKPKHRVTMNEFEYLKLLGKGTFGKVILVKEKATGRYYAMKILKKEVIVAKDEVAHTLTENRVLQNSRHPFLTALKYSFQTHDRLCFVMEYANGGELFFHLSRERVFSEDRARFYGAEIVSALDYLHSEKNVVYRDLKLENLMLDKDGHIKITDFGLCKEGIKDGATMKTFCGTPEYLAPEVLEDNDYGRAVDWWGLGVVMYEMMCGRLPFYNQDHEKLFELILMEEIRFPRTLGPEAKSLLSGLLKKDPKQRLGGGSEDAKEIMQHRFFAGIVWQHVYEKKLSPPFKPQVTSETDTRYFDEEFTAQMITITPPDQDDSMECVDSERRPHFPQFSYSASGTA

Chain of Akt3 (Q9Y243 whole entry): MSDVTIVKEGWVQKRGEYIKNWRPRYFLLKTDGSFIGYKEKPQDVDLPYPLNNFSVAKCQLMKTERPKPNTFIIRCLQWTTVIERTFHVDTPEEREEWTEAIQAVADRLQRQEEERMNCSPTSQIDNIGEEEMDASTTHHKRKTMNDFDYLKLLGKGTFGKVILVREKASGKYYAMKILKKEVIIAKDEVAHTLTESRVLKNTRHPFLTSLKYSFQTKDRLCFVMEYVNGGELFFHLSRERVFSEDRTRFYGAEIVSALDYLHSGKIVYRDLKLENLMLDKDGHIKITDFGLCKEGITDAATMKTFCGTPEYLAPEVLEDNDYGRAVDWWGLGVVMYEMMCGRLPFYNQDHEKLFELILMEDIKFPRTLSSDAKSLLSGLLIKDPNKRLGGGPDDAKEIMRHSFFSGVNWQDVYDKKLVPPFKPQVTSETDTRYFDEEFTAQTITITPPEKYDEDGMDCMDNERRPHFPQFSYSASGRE

EC50 (Ba/F3^myr-Akt2 cells; Mus musculus, read-out: CTG BaF3myr-Akt2, Mean, mean of replicates): 4.09 µM
EC50 (Ba/F3^myr-Akt2 cells; Mus musculus, read-out: CTG BaF3myr-Akt2, individual determinations, single replicates): 2.95 µM
EC50 (Ba/F3^myr-Akt2 cells; read-out: CTG BaF3myr-Akt2, individual determinations, single replicates): 4.7 µM and 4.62 µM
IC50 (Akt3; HTRF IC50 Akt3, individual determinations, single replicates): 144 nM and 176 nM and 240 nM and 188 nM
IC50 (Akt3; IC50 Akt3, HTRF, ATP at KM, 1 h preincubation): 187 ± 40 nM
EC50 (Ba/F3^myr-Akt1 cells; Mus musculus, read-out: CTG BaF3myr-Akt1, Mean, mean of replicates): 9.48 µM
EC50 (Ba/F3^myr-Akt1 cells; Mus musculus, read-out: CTG BaF3myr-Akt1, individual determinations, single replicates): 10 µM
EC50 (Ba/F3^myr-Akt1 cells; read-out: CTG BaF3myr-Akt1, individual determinations, single replicates): 9.21 µM and 9.25 µM
IC50 (Akt2 [1]; HTRF IC50 Akt2, Mean, mean of replicates): 175 nM
IC50 (Akt2 [1]; HTRF IC50 Akt2, individual determinations, single replicates): 177 nM and 317 nM and 174 nM
IC50 (Akt2 [1]; IC50 Akt2, HTRF, ATP at KM, 1 h preincubation): 175 ± 2 nM
tAkt2 % (Akt2 [3]; CETSA PANC1, 1 µM, temperature 39.9): 100.00%
tAkt2 % (Akt2 [3]; CETSA PANC1, 1 µM, temperature 43.5): 81.90%
tAkt2 % (Akt2 [3]; CETSA PANC1, 1 µM, temperature 48.4): 58.55%
tAkt2 % (Akt2 [3]; CETSA PANC1, 1 µM, temperature 53.8): 58.55%
tAkt2 % (Akt2 [3]; CETSA PANC1, 1 µM, temperature 58.1): 42.44%
tAkt2 % (Akt2 [3]; CETSA PANC1, 1 µM, temperature 61.4): 52.13%
tAkt2 % (Akt2 [3]; CETSA PANC1, 1 µM, temperature 65.6): 35.55%
tAkt2 % (Akt2 [3]; CETSA PANC1, 1 µM, temperature 70.9): 6.07%
tAkt2 % (Akt2 [3]; CETSA PANC1, 1 µM, temperature 76): 11.50%
tAkt2 % (Akt2 [3]; CETSA PANC1, 1 µM, temperature 79.9): 0.00%
tAkt2 % (Akt2 [3]; CETSA PANC1, 2.5 µM, temperature 39.9): 100.00%
tAkt2 % (Akt2 [3]; CETSA PANC1, 2.5 µM, temperature 43.5): 97.05%
tAkt2 % (Akt2 [3]; CETSA PANC1, 2.5 µM, temperature 48.4): 85.02%
tAkt2 % (Akt2 [3]; CETSA PANC1, 2.5 µM, temperature 53.8): 75.94%
tAkt2 % (Akt2 [3]; CETSA PANC1, 2.5 µM, temperature 58.1): 76.89%
tAkt2 % (Akt2 [3]; CETSA PANC1, 2.5 µM, temperature 61.4): 28.89%
tAkt2 % (Akt2 [3]; CETSA PANC1, 2.5 µM, temperature 65.6): 35.73%
tAkt2 % (Akt2 [3]; CETSA PANC1, 2.5 µM, temperature 70.9): 24.29%
tAkt2 % (Akt2 [3]; CETSA PANC1, 2.5 µM, temperature 76): 12.62%
tAkt2 % (Akt2 [3]; CETSA PANC1, 2.5 µM, temperature 79.9): 0.00%
tAkt1 % (Akt1): 100.00%
Structure (SMILES): C=CC(=O)Nc1ccc2[nH]c(=O)n(C3CCN(Cc4ccc(-c5ncc(Cc6ccc(N)nc6)cc5-c5ccccc5)cc4)CC3)c2c1 [compound 20]
cell viability (Ba/F3^myr-Akt2 cells; myr-Akt2, 0.1 nM, single replicates, 0.0001 µM): 92.3 % of control and 98.1 % of control
cell viability (Ba/F3^myr-Akt2 cells; myr-Akt2, 5000 nM, single replicates, 5 µM): 26.9 % of control and 44.2 % of control
viability at 0.0001 µM (Ba/F3^myr-Akt2 cells; Mus musculus, read-out: cell viability, CTG, myr-Akt2, 0.1 nM, single replicates): 105%
viability at 5 µM (Ba/F3^myr-Akt2 cells; Mus musculus, read-out: cell viability, CTG, myr-Akt2, 5000 nM, single replicates): 25.6%
cell viability (Ba/F3^myr-Akt1 cells; myr-Akt1, 0.1 nM, single replicates, 0.0001 µM): 108.0 % of control and 90.0 % of control
cell viability (Ba/F3^myr-Akt1 cells; myr-Akt1, 5000 nM, single replicates, 5 µM): 85.6 % of control and 91.8 % of control
viability at 0.0001 µM (Ba/F3^myr-Akt1 cells; Mus musculus, read-out: cell viability, CTG, myr-Akt1, 0.1 nM, single replicates): 102%
viability at 5 µM (Ba/F3^myr-Akt1 cells; Mus musculus, read-out: cell viability, CTG, myr-Akt1, 5000 nM, single replicates): 73.6%
Log ratio EC50 [Akt] / EC50 [Akt], Akt1 / Akt2 (Ba/F3^myr-Akt1 cells; cell viability assay Ba/F3 myr-Akt cells, log units): 0.27
viability at 3 days, 0.0001 µM ([2]; 0.1 nM, read-out: cell viability): 104%
viability at 3 days, 5 µM ([2]; 5000 nM): 83.7%
cell viability (parental Ba/F3 cells; 0.1 nM, single replicates, 0.0001 µM): 98.4 % of control and 93.0 % of control
cell viability (parental Ba/F3 cells; 5000 nM, single replicates, 5 µM): 87.1 % of control and 85.4 % of control
EC50 (parental Ba/F3 cells; Mus musculus, BaF3, parental cells, mean of replicates, read-out: CTG BaF3, Mean): 12.1 µM
EC50 (parental Ba/F3 cells; Mus musculus, BaF3, parental cells, single replicates, read-out: CTG BaF3, individual determinations): 9.75 µM
EC50 (parental Ba/F3 cells; parental cells, single replicates, read-out: CTG BaF3, individual determinations): 9.72 µM and 18.6 µM
pAkt2 level (immunoblot) (pAkt2): moderate downregulation of pAkt2
thermal stabilization of Akt2 (CETSA, in words) (Akt2 [3]; PANC1, 2.5 µM): significant stabilization of Akt2 and Akt3

Reference: publication PMC8421423, “Cellular model system to dissect the isoform-selectivity of Akt inhibitors” (Nature Communications, 2021)
